The source of these data is the supplement of paper PMC10307832.

Holding throughout (test): relative viability (nuclei count vs DMSO), 5 days (fraction); higher = more cells survive
Compound in one test: C1CSC2=C(C(=O)N1)SC3=C2C=C(C=C3)O [kb NB 142-70]
In a few lines: (§1)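 Following overnight incubation at 37 °C, lung cancer cell lines in 1536-well plates were pinned with five library-drug doses (not always all listed) in √10 steps on vehicle-anchored plates. The cells then spent 5 days without medium change before a combined fix, permeabilisation and Hoechst stain, 4× imaging and MetaXpress nuclear counts. Viability is the treated-to-vehicle ratio of nuclei, taken as the median across plates. Only plates with control CV below 25% and at least one doubling passed.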

Compound in test [1]: NCC(=O)Nc1ccc(-n2nc(C(F)(F)F)cc2-c2ccc3c(ccc4ccccc43)c2)cc1
A digest of the protocol: as §1

Compound in the test “kb NB 142-70 + Alpelisib”: C1CSC2=C(C(=O)N1)SC3=C2C=C(C=C3)O [kb NB 142-70] + Cc1nc(NC(=O)N2CCC[C@H]2C(N)=O)sc1-c1ccnc(C(C)(C)C(F)(F)F)c1 [Alpelisib] (partner 2 µM)
In a few lines: (§2)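 Lung cancer cell lines were pin-tool dosed in 1536-well plates on the day after seeding, with either a lone drug or a fixed anchor-drug dose plus five library-drug doses (not always all listed) in √10 steps. Nuclei were counted on 4× images after 5 days. Relative viability is the ratio of treated-well to vehicle-well nuclei counts, with each value a median of duplicate plates.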

Compound in test [2]: NCC(=O)Nc1ccc(-n2nc(C(F)(F)F)cc2-c2ccc3c(ccc4ccccc43)c2)cc1 + Nc1nc2[nH]cc(CCc3ccc(C(=O)N[C@@H](CCC(=O)O)C(=O)O)cc3)c2c(=O)[nH]1 [Pemetrexed] (partner 0.2 µM)
A digest of the protocol:
as §2

As to EPLC-272H, the relative viability with kb NB 142-70 (0.1 µM) was 0.988; with kb NB 142-70 (1 µM), 0.905; with kb NB 142-70 (3.162 µM), 0.447; in test [1] (0.02 µM) it was 0.904; in test [1] (0.06325 µM), 1.2; in test [1] (0.2 µM) it was 0.874. Also, the relative viability turned out to be 1.01 in test [1] (0.6325 µM); 0.911 in test [1] (2 µM); 0.906 with kb NB 142-70 + Alpelisib (first compound 0.1 µM); 0.899 with kb NB 142-70 + Alpelisib (first compound 1 µM); 0.509 with kb NB 142-70 + Alpelisib (first compound 3.162 µM); 0.275 in test [2] (first compound 0.02 µM). The relative viability in test [2] (first compound 0.06325 µM) turned out to be 0.395; in test [2] (first compound 0.2 µM), 0.308; in test [2] (first compound 0.6325 µM), 0.356; in test [2] (first compound 2 µM), 0.315.

On to H3255, for which the relative viability in the test with kb NB 142-70 (0.1 µM) is 1.01; with kb NB 142-70 (1 µM), 0.954; in the test with kb NB 142-70 (3.162 µM), 1.02; in test [1] (0.02 µM), 0.951; in test [1] (0.06325 µM), 1.01; in test [1] (0.2 µM), 0.974. Further, the relative viability turned out to be 0.866 in test [1] (0.6325 µM); 1.05 in test [1] (2 µM); 0.621 with kb NB 142-70 + Alpelisib (first compound 0.1 µM); 0.754 with kb NB 142-70 + Alpelisib (first compound 1 µM); 0.768 with kb NB 142-70 + Alpelisib (first compound 3.162 µM); 0.561 in test [2] (first compound 0.02 µM). Moreover, the relative viability was found to be 0.49 in test [2] (first compound 0.06325 µM), 0.552 in test [2] (first compound 0.2 µM), 0.565 in test [2] (first compound 0.6325 µM) and 0.601 in test [2] (first compound 2 µM).

With HARA, the relative viability with kb NB 142-70 (0.1 µM) was 0.986; in the test with kb NB 142-70 (1 µM), 0.971; with kb NB 142-70 (3.162 µM), 1.02; in test [1] (0.02 µM) it was 0.901; in test [1] (0.06325 µM) it was 1.09; in test [1] (0.2 µM), 0.975. Besides, the relative viability in test [1] (0.6325 µM) came to 1.11; in test [1] (2 µM), 1.07; with kb NB 142-70 + Alpelisib (first compound 0.1 µM) it was 0.786; in the test with kb NB 142-70 + Alpelisib (first compound 1 µM) it was 0.726; in the test with kb NB 142-70 + Alpelisib (first compound 3.162 µM) it was 0.516; in test [2] (first compound 0.02 µM) it was 0.253. In addition, the relative viability was 0.241 in test [2] (first compound 0.06325 µM), 0.258 in test [2] (first compound 0.2 µM), 0.245 in test [2] (first compound 0.6325 µM) and 0.246 in test [2] (first compound 2 µM).

For the cell line HCC-15, the relative viability with kb NB 142-70 (0.1 µM) was determined as 1.03; with kb NB 142-70 (1 µM), 1; with kb NB 142-70 (3.162 µM), 0.978; in test [1] (0.02 µM), 1; in test [1] (0.06325 µM), 1.06; in test [1] (0.2 µM), 0.963. Besides, the relative viability in test [1] (0.6325 µM) was 1.03; in test [1] (2 µM), 1.02; in the test with kb NB 142-70 + Alpelisib (first compound 0.1 µM), 0.908; with kb NB 142-70 + Alpelisib (first compound 1 µM), 0.787; with kb NB 142-70 + Alpelisib (first compound 3.162 µM), 0.626; in test [2] (first compound 0.02 µM), 0.209. Further, the relative viability in test [2] (first compound 0.06325 µM) was found to be 0.209; in test [2] (first compound 0.2 µM), 0.212; in test [2] (first compound 0.6325 µM), 0.217; in test [2] (first compound 2 µM), 0.229.

Consider HCC-44, for which the relative viability with kb NB 142-70 (0.1 µM) was determined as 1.01; in the test with kb NB 142-70 (1 µM), 0.997; with kb NB 142-70 (3.162 µM), 1.08; in test [1] (0.02 µM), 0.996; in test [1] (0.06325 µM) it was 1.03; in test [1] (0.2 µM) it was 0.952. Further, the relative viability in test [1] (0.6325 µM) amounted to 0.984; in test [1] (2 µM) it was 1; with kb NB 142-70 + Alpelisib (first compound 0.1 µM), 0.772; with kb NB 142-70 + Alpelisib (first compound 1 µM), 0.875; in the test with kb NB 142-70 + Alpelisib (first compound 3.162 µM), 0.735; in test [2] (first compound 0.02 µM), 0.634. Moreover, the relative viability in test [2] (first compound 0.06325 µM) was found to be 0.624; in test [2] (first compound 0.2 µM), 0.682; in test [2] (first compound 0.6325 µM), 0.657; in test [2] (first compound 2 µM) it was 0.63.

In the case of HCC-78, the relative viability in the test with kb NB 142-70 (0.1 µM) is 1.08; with kb NB 142-70 (1 µM), 0.998; with kb NB 142-70 (3.162 µM), 0.877; in test [1] (0.02 µM), 0.993; in test [1] (0.06325 µM) it was 0.93; in test [1] (0.2 µM), 1.04. In addition, the relative viability stood at 0.944 in test [1] (0.6325 µM); 0.968 in test [1] (2 µM); 0.363 with kb NB 142-70 + Alpelisib (first compound 0.1 µM); 0.348 with kb NB 142-70 + Alpelisib (first compound 1 µM); 0.335 in the test with kb NB 142-70 + Alpelisib (first compound 3.162 µM); 0.977 in test [2] (first compound 0.02 µM). Further, the relative viability in test [2] (first compound 0.06325 µM) was 0.894; in test [2] (first compound 0.2 µM), 0.884; in test [2] (first compound 0.6325 µM) it was 0.903; in test [2] (first compound 2 µM) it was 0.89.

Take HCC-366: the relative viability was 1.01 in the test with kb NB 142-70 (0.1 µM); 0.976 with kb NB 142-70 (1 µM); 0.927 with kb NB 142-70 (3.162 µM); 1.01 in test [1] (0.02 µM); 1.07 in test [1] (0.06325 µM); 1 in test [1] (0.2 µM). Further, the relative viability in test [1] (0.6325 µM) came out at 1.01; in test [1] (2 µM), 0.934; with kb NB 142-70 + Alpelisib (first compound 0.1 µM), 0.425; with kb NB 142-70 + Alpelisib (first compound 1 µM), 0.333; with kb NB 142-70 + Alpelisib (first compound 3.162 µM) it was 0.296; in test [2] (first compound 0.02 µM), 0.173. Further, the relative viability in test [2] (first compound 0.06325 µM) was 0.149; in test [2] (first compound 0.2 µM), 0.183; in test [2] (first compound 0.6325 µM), 0.162; in test [2] (first compound 2 µM), 0.282.

As for HCC-827, the relative viability was found to be 1.07 in the test with kb NB 142-70 (0.1 µM); 1.03 with kb NB 142-70 (1 µM); 0.971 with kb NB 142-70 (3.162 µM); 1.03 in test [1] (0.02 µM); 1.05 in test [1] (0.06325 µM); 0.987 in test [1] (0.2 µM). Further, the relative viability in test [1] (0.6325 µM) is 1.02; in test [1] (2 µM) it was 1.1; with kb NB 142-70 + Alpelisib (first compound 0.1 µM), 0.868; in the test with kb NB 142-70 + Alpelisib (first compound 1 µM) it was 0.928; in the test with kb NB 142-70 + Alpelisib (first compound 3.162 µM) it was 0.851; in test [2] (first compound 0.02 µM), 0.217. The relative viability in test [2] (first compound 0.06325 µM) turned out to be 0.211; in test [2] (first compound 0.2 µM), 0.277; in test [2] (first compound 0.6325 µM), 0.251; in test [2] (first compound 2 µM), 0.254.

For HOP-62, the relative viability worked out at 1.03 with kb NB 142-70 (0.1 µM); 1.04 with kb NB 142-70 (1 µM); 0.911 with kb NB 142-70 (3.162 µM); 1.03 in test [1] (0.02 µM); 0.997 in test [1] (0.06325 µM); 0.943 in test [1] (0.2 µM). Further, the relative viability in test [1] (0.6325 µM) amounted to 0.928; in test [1] (2 µM) it was 1.05; with kb NB 142-70 + Alpelisib (first compound 0.1 µM), 1.18; with kb NB 142-70 + Alpelisib (first compound 1 µM) it was 0.777; in the test with kb NB 142-70 + Alpelisib (first compound 3.162 µM) it was 0.937; in test [2] (first compound 0.02 µM), 0.334. The relative viability in test [2] (first compound 0.06325 µM) worked out at 0.29; in test [2] (first compound 0.2 µM) it was 0.3; in test [2] (first compound 0.6325 µM), 0.275; in test [2] (first compound 2 µM), 0.314.
